Assay results published in patent US12070501B1, “Topical ophthalmological compositions” (ADS Therapeutics LLC, priority 2021, dated 2024).

Assays:
[1] = Miscibility of semi-fluorinated alkane F6H8 with MCT or light liquid paraffin oil; assay type: physicochemical
Description: F6H8, a semi-fluorinated alkane was tested for miscibility with MCT with the ratio of F6H8 to MCT from 1:99 to 99:1. […] F6H8, a semi-fluorinated alkane was tested for miscibility with light liquid paraffin oil with the ratio of F6H8 to light liquid paraffin oil from 1:99 to 99:1.

[2] = water-based formulation at neutral pH; cited from earlier work
[3] = tested on: New Zealand White rabbits

Row | Miscibility with MCT ([1]; ratio of F6H8 to MCT from 1:99 to 99:1) | Compound | Miscibility with light liquid paraffin oil ([1]; ratio of F6H8 to light liquid paraffin oil from 1:99 to 99:1) | Shelf life of the product [2] | Magnitude of pupil size changes versus atropine sulfate in aqueous solution ([3]; atropine in F6H8-based formulation, at comparable doses) | Dose response in pupil size dilation ([3]; from 0.01% to 0.05% atropine, Day 7 and Day 22) | Pupil size dilation ([3]; topical ocular instillation twice daily, 40 μL to left eye, Day 7 and Day 22, CBT-009 at 0.01%, […] and 0.05% in […] phenylethyl alcohol, 10% MCT, 89.75% F6H8, comparator 0.03%)
1 | miscible with MCT at all ratios | CCCCCCCCC(F)(F)C(F)(F)C(F)(F)C(F)(F)C(F)(F)C(F)(F)F [F6H8, perfluorohexyloctane] | miscible with light liquid paraffin oil at all ratios | – | – | – | –
2 | – | CN1[C@@H]2CC[C@H]1C[C@@H](OC(=O)C(CO)c1ccccc1)C2 (stereo partly drawn) [Atropine, atropine] | – | less than 1 year | comparable | dose response in pupil size dilation was observed | pupil size dilation was observed
